Patent US10722587B2, “Composition for intracellular delivery containing adenovirus protein VI-derived peptide and anticancer pharmaceutical composition containing same” (priority 2015, dated 2020)

Test system: Hela cell line
Test: MTT assay, oncolytic capability and cytotoxicity
Format: cell-based, human
Conditions: 4 days
Experimental: In this example, to confirm the adenoviral proliferation capability and oncolytic capability of Ad pDNA-polymer-peptide complexes, a complex was manufactured using polymer PAM-ABP and d pDNA containing viral DNA of H-Rd19-k35/DCN/shcMet, which is a tumor-selective oncolytic adenovirus expressing adenovirus DNA such as decorin (DCN) and shcMet. A human uterine cancer cell line, Hela cell line, was inoculated into a 12-well plate, and after 24 hours, treated with naked Ad pDNA, Ad pDNA/PAM-ABP, Ad pDNA/PAM-ABP/peptide complexes in which 6 types of peptides such as mVI, mVI-TAT, mVI-TAT-A, mVI-G-TAT-A, mVI-A-TAT and mVI-G-A-TAT were conjugated with Ad pDNA/PAM-ABP, and controls such as VI-9R and a complex with a TAT peptide. In addition, to verify cytotoxicity, the cells were treated with PAM-ABP or a peptide alone. Four days after the treatment, the culture solution was collected, and the number of adenovirus particles was detected using Q-PCR, and to verify oncolytic capability, 2 mg/ml of 3-(4,5-dimethylthiazol-2-yl)-2,5-diphenyl-tetrazolium bromide (MTT; Sigma Aldrich) in PBS was added at 200 μL to each well of the supernatant-removed plate, and cultured at 37° C. for 4 hours. Afterward, the supernatant was removed, the precipitate was dissolved in 1.0 ml dimethyl sulfoxide, the absorbance was analyzed by reading the plate at 540 nm on a microplate reader, and a non-treated cell group was classified as a negative control.

Row | Structure (SMILES) | cytotoxicity of peptide alone
1 | CC[C@H](C)[C@H](NC(=O)CNC(=O)[C@H](CO)NC(=O)[C@H](Cc1c[nH]c2ccccc12)NC(=O)[C@H](CC(C)C)NC(=O)[C@H](CO)NC(=O)CNC(=O)[C@H](Cc1c[nH]c2ccccc12)NC(=O)[C@H](CO)NC(=O)[C@H](Cc1ccccc1)NC(=O)[C@H](C)N)C(=O)N[C@@H](CCCCN)C(=O)N[C@@H](CC(N)=O)C(=O)N[C@@H](Cc1ccccc1)C(=O)NCC(=O)N[C@@H](Cc1ccccc1)C(=O)N[C@@H](CC(C)C)C(=O)NCC(=O)N[C@@H](CCCNC(=N)N)C(=O)N[C@@H](CCCCN)C(=O)N[C@@H](CCCCN)C(=O)N[C@@H](CCCNC(=N)N)C(=O)N[C@@H](CCCNC(=N)N)C(=O)N[C@@H](CCC(N)=O)C(=O)N[C@@H](CCCNC(=N)N)C(=O)N[C@@H](CCCNC(=N)N)C(=O)N[C@@H](CCCNC(=N)N)C(=O)N[C@@H](C)C(=O)N[C@@H](CC(C)C)C(=O)N[C@@H](C)C(=O)N[C@@H](CCC(=O)O)C(=O)O [mVI-G-TAT-A] | relatively high cytotoxicity
2 | CC[C@H](C)[C@H](NC(=O)CNC(=O)[C@H](CO)NC(=O)[C@H](Cc1c[nH]c2ccccc12)NC(=O)[C@H](CC(C)C)NC(=O)[C@H](CO)NC(=O)CNC(=O)[C@H](Cc1c[nH]c2ccccc12)NC(=O)[C@H](CO)NC(=O)[C@H](Cc1ccccc1)NC(=O)[C@H](C)N)C(=O)N[C@@H](CCCCN)C(=O)N[C@@H](CC(N)=O)C(=O)N[C@@H](Cc1ccccc1)C(=O)NCC(=O)N[C@@H](C)C(=O)N[C@@H](CC(C)C)C(=O)N[C@@H](C)C(=O)N[C@@H](CCC(=O)O)C(=O)N[C@@H](CCCNC(=N)N)C(=O)N[C@@H](CCCCN)C(=O)N[C@@H](CCCCN)C(=O)N[C@@H](CCCNC(=N)N)C(=O)N[C@@H](CCCNC(=N)N)C(=O)N[C@@H](CCC(N)=O)C(=O)N[C@@H](CCCNC(=N)N)C(=O)N[C@@H](CCCNC(=N)N)C(=O)N[C@@H](CCCNC(=N)N)C(=O)O [mVI-A-TAT] | relatively high cytotoxicity
3 | CC[C@H](C)[C@H](NC(=O)CNC(=O)[C@H](CO)NC(=O)[C@H](Cc1c[nH]c2ccccc12)NC(=O)[C@H](CC(C)C)NC(=O)[C@H](CO)NC(=O)CNC(=O)[C@H](Cc1c[nH]c2ccccc12)NC(=O)[C@H](CO)NC(=O)[C@H](Cc1ccccc1)NC(=O)[C@H](C)N)C(=O)N[C@@H](CCCCN)C(=O)N[C@@H](CC(N)=O)C(=O)N[C@@H](Cc1ccccc1)C(=O)NCC(=O)N[C@@H](Cc1ccccc1)C(=O)N[C@@H](CC(C)C)C(=O)NCC(=O)N[C@@H](C)C(=O)N[C@@H](CC(C)C)C(=O)N[C@@H](C)C(=O)N[C@@H](CCC(=O)O)C(=O)N[C@@H](CCCNC(=N)N)C(=O)N[C@@H](CCCCN)C(=O)N[C@@H](CCCCN)C(=O)N[C@@H](CCCNC(=N)N)C(=O)N[C@@H](CCCNC(=N)N)C(=O)N[C@@H](CCC(N)=O)C(=O)N[C@@H](CCCNC(=N)N)C(=O)N[C@@H](CCCNC(=N)N)C(=O)N[C@@H](CCCNC(=N)N)C(=O)O [mVI-G-A-TAT] | relatively high cytotoxicity
4 | CC[C@H](C)[C@H](NC(=O)CNC(=O)[C@H](CO)NC(=O)[C@H](Cc1c[nH]c2ccccc12)NC(=O)[C@H](CC(C)C)NC(=O)[C@H](CO)NC(=O)CNC(=O)[C@H](Cc1c[nH]c2ccccc12)NC(=O)[C@H](CO)NC(=O)[C@H](Cc1ccccc1)NC(=O)[C@H](C)N)C(=O)N[C@@H](CCCCN)C(=O)N[C@@H](CC(N)=O)C(=O)N[C@@H](Cc1ccccc1)C(=O)NCC(=O)O [mVI] | relatively high cytotoxicity
5 | CC[C@H](C)[C@H](NC(=O)CNC(=O)[C@H](CO)NC(=O)[C@H](Cc1c[nH]c2ccccc12)NC(=O)[C@H](CC(C)C)NC(=O)[C@H](CO)NC(=O)CNC(=O)[C@H](Cc1c[nH]c2ccccc12)NC(=O)[C@@H](N)CO)C(=O)N[C@@H](CCCCN)C(=O)N[C@@H](CC(N)=O)C(=O)N[C@@H](Cc1ccccc1)C(=O)NCC(=O)N[C@@H](CCCNC(=N)N)C(=O)N[C@@H](CCCNC(=N)N)C(=O)N[C@@H](CCCNC(=N)N)C(=O)N[C@@H](CCCNC(=N)N)C(=O)N[C@@H](CCCNC(=N)N)C(=O)N[C@@H](CCCNC(=N)N)C(=O)N[C@@H](CCCNC(=N)N)C(=O)N[C@@H](CCCNC(=N)N)C(=O)N[C@@H](CCCNC(=N)N)C(=O)O [VI-9R] | high cytotoxicity
